Laboratory results reported in patent publication US20020098248A1, “Method for treating and/or preventing infections caused by methicillin-resistant Staphylococcus aureus” (priority 2000, published 2002).

System: Staphylococcus, particularly MRSA
Test: Examination of catechin for antimicrobial effect
Type: cell-based
Settings: catechin only, even if it has a high concentration

**Q.** catechin was tested. Which “antimicrobial effect against Staphylococcus, particularly MRSA” value did it give?
**A.** The value was “does not provide a desired antimicrobial effect”.
